According to PMC10145610, “In Vitro and In Silico Investigation of Polyacetylenes from Launaea capitata (Spreng.) Dandy as Potential COX-2, 5-LOX, and BchE Inhibitors” (Molecules, 2023):
Read-outs that look alike come from different tables or passages of the source.

Experiments:
COX-1 = conditions: read-out: inhibitory activity against COX-1; cited from earlier work
5-LOX [1] = target: T1, 5-LOX (Homo sapiens, UniProt P09917); conditions: read-out: inhibitory activity against 5-LOX; cited from earlier work
T1 construct: purchased BioVision K980-100
T1 sequence (P09917 1-674): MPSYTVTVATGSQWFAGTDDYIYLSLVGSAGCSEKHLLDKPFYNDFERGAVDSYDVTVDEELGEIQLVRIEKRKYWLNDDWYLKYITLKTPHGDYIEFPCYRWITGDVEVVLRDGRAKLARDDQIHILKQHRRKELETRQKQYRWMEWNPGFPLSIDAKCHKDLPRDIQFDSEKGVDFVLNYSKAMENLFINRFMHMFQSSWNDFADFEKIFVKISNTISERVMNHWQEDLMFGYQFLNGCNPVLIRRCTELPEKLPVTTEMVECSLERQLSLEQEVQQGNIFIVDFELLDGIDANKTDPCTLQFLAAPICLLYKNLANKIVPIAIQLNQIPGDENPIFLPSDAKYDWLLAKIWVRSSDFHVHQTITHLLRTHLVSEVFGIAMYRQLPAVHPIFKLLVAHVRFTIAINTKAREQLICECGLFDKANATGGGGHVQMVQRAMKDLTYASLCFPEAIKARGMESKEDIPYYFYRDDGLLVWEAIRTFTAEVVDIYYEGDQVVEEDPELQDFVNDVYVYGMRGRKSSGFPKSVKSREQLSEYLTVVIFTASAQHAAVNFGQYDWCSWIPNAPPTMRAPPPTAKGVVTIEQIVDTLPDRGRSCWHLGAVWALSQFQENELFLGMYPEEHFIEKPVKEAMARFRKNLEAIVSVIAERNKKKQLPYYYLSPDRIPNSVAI

5-LOX [2] = target: T1, 5-LOX; assay: 5-LOX inhibition assay (fluorometric inhibitor screening kit); assay type: biochemical
Protocol: The fluorometric approach was used to test the 5-LOX enzyme, in accordance with the manufacturer’s instructions, by using the enzyme’s inhibitor screening kit (CAT # K980-100, BioVision, Milpitas, CA, USA) to evaluate the 5-lipoxygenase (5-LOX) inhibitory activity in vitro [18, 45, 46]. Twelve concentrations (ranging from […]) were prepared by serial dilution method.
(§1) The IC50 values were represented as means (± SD) from triplicates of two independent experiments.

[3] = target: T2, horse serum butyrylcholinesterase (Equine BchE) (Equus caballus, UniProt P81908); assay: BchE inhibition assay; assay type: biochemical
T2 construct: using horse serum butyrylcholinesterase (Equine BchE; CAS#9001-08-5); tissue CAS#9001-08-5; host or cells: horse serum
Protocol: The in vitro butyrylcholinesterase (BchE) inhibitory activity of the isolated polyacetylenes was determined according to the published method, using horse serum butyrylcholinesterase (Equine BchE; CAS#9001-08-5) with a slight change. To create a useful stock solution, the materials were dissolved in DMSO. The maximal DMSO concentration was 0.1%, and twelve sample concentrations (ranging from […]) were created by two-fold serial dilution in Tris buffer (pH 8.0).
as §1

COX-2 = target: T3, COX-2 (Homo sapiens, UniProt P35354); assay: COX-2 inhibition assay (fluorometric inhibitor screening kit); assay type: biochemical
T3 construct: purchased BioVision K547-100
T3 sequence (P35354 18-604): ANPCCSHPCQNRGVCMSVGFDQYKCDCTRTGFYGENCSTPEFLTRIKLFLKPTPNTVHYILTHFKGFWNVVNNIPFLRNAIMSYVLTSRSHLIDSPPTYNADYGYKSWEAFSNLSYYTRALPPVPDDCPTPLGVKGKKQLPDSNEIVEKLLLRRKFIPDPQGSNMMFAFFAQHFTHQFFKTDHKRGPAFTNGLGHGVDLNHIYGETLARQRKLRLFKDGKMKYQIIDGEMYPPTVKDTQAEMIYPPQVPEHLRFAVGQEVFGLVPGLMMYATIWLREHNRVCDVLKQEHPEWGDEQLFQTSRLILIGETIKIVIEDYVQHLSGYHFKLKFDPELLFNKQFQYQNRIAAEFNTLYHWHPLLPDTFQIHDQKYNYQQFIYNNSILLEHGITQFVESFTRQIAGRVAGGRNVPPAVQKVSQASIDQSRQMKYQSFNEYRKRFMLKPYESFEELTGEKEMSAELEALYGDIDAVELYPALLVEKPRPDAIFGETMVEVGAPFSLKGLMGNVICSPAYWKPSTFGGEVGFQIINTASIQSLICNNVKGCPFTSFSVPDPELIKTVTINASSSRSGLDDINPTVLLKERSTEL
Protocol: The fluorometric approach was used to measure the in vitro cyclooxygenase (COX-2) inhibitory activity. It was carried out in accordance with the COX-2 Inhibitor Screening Kit methodology, as advised by the manufacturer (CAT # K547-100, BioVision, Milpitas, CA, USA). The sample solutions were prepared in the manner described before providing twelve concentrations (ranging from […]).
as §1

T2 sequence (P81908 whole entry): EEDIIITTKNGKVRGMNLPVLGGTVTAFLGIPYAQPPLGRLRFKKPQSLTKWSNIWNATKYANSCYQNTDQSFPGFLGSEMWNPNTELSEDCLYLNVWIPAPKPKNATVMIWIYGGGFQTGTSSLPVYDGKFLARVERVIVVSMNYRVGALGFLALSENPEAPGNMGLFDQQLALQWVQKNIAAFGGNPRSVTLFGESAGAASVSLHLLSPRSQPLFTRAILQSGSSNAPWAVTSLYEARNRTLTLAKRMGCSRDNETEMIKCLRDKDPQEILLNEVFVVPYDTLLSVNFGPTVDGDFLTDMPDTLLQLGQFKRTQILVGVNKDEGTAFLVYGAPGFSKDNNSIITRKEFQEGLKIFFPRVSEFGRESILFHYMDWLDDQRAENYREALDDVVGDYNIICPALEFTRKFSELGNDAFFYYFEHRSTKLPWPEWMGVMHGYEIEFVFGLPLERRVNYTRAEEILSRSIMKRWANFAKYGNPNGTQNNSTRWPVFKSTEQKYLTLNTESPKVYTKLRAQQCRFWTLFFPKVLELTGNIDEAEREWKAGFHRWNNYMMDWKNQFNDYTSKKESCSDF

Row | Structure (SMILES) | IC50 (COX-1) [µM] | IC50 (5-LOX [1]) [µM] | IC50 (5-LOX [2]) [µM] | IC50 [3] [µM] | IC50 (COX-2) [µM] | IC50 against COX-2 (COX-2; in vitro, mean ± SD, triplicates of two independent experiments) | IC50 (COX-2; in vitro, mean ± SD, triplicates of two independent experiments, read-out: IC50 against COX-2) [µM]
1 | C/C=C/C#CC#C/C=C/C=C\CCOC(=O)/C=C/c1ccc(O)c(OC)c1 [(3Z,5E,11E)-tridecatriene-7,9-diynyl-1-O-(E)-ferulate] | 1.1 | 3.4 | – | – | – | – | –
2 | C/C=C/C#CC#C/C=C/CC[C@H](O)CCO [Compound 2, (3S)-(6E,12E)-tetradecadiene-8,10-diyne-1,3-diol] | – | – | > 200 | 179 ± 15.6 | > 200 | inactive | –
3 | C/C=C/C#CC#C/C=C/CC[C@@H](CCO)O[C@@H]1O[C@H](CO)[C@@H](O)[C@H](O)[C@H]1O [Compound 4, (3S)-(6E,12E)-tetradecadiene-8,10-diyne-1-ol-3-O-β-D-glucopyranoside] | – | – | 34.6 ± 4.26 | 14.8 ± 1.55 | 146 ± 7.7 | – | –
4 | CC(Cc1ccc(O)c(O)c1)C(C)Cc1ccc(O)c(O)c1 (stereo not shown) [NDGA, nordihydroguaiaretic acid, reference compound] | – | – | – | – | – | – | 4.7 ± 0.76
